Experimental data taken from patent publication US6960347B2, “Composition based on N-cholesteryloxycarbonyl-4-para-aminophenol and hydroquinone or one of its derivatives” (L'Oreal, priority 2000, dated 2005).

Tested on: fungal tyrosinase
Test: in vitro inhibition of the activity of fungal tyrosinase (absorbance at 475 nm)
Type: biochemical
Conditions: for molar concentration for which an inhibition value of 25% is observed: compound dissolved in ethanol, phosphate buffer, L-tyrosine and L-Dopa substrates, OD 475 nm
Description: This test involves in measuring the absorbance (optical density OD) at 475 nm as a function of time for the hydroquinone dissolved (at various concentrations) in ethanol in the presence of a phosphate buffer, 1 ml of L-tyrosine at 2.0×10^−3 M in a phosphate buffer, 0.1 ml of L-Dopa at 1.0×10^−4 M in a phosphate buffer and 50 μl of a solution of fungal tyrosinase at 1 g/l in a phosphate buffer, compared with a control consisting of ethanol (solvent) used at the same concentration in the phosphate buffer.
The percentage of inhibition is determined by the following equation: [formula]
The molar concentration of hydroquinone for which an inhibition value of 25% is observed is then determined.
The test described in Example 1 above is used, except that N-ethyloxycarbonyl-4-para-aminophenol was substituted for N-cholesteryloxycarbonyl-4-para-aminophenol.

Row | SMILES | inhibition of tyrosinase (compound alone at C2=6.77×10^−5 M (solubility limit in DMSO)) | molar concentration for which an inhibition value of 25% is observed [µM]
1 | CC(C)CCC[C@@H](C)[C@H]1CC[C@H]2[C@@H]3CC=C4C[C@@H](OC(=O)Nc5ccc(O)cc5)CC[C@]4(C)[C@H]3CC[C@]12C [N-cholesteryloxycarbonyl-4-para-aminophenol] | no inhibition | 
2 | CCOC(=O)Nc1ccc(O)cc1 [N-ethyloxycarbonyl-4-para-aminophenol] |  | 125
3 | Oc1ccc(O)cc1 [hydroquinone] |  | 80
